Series [1] concerns glioblastoma cell line U138MG. The series is described as follows: Glutamate contents assay. Type of series: cell-based. The following applies: U138MG cells after drug treatment, compared to cell viability, Figure 7. The text has this: (§1) A microplate reader was used to measure absorbances.
Drug efficacy describes how the drug-protein interaction manipulates the normal action of the protein. Glutamate content was examined at differing drug concentrations with the glutamate assay kit to measure drug efficacies. Abcam protocol (ab83389) was followed to quantitate glutamate content. Here, the protocols were summarized.
To prepare samples, cells were harvested, washed with cold PBS, resuspended in an assay buffer, homogenised, incubated for 15 - 30 min on ice, and centrifuged for 2 - 5 minutes at 4°C at top speed using a cold microcentrifuge. The supernatant was collected and transferred to a clean tube, then distributed to well plates.
To quantitate free glutamate levels, the reaction mixture was added to each standard and sample well. The background reaction mix was added to the background sample wells. Wells were mixed and incubated at 37°C for 30 minutes protected from light. Colour change was measured at OD = 450 nm (blue). Glutamate concentration was calculated as formulated in the protocol, then divided by relative cytotoxicity by MTT assay to extrapolate drug efficacy.

For series [2], the system named is glioblastoma cell line U138MG.
Procedure: (§3) Before performing these assays, the optimum cell count per well was decided by comparing the optical density for L-glutamate (ab120049) absorbance between DMEM-0819 (with glutamine) and DMEM-5671 (without glutamine) culture media, which was tested by glutamate assay kit from Abcam (Abcam PLC, Cambridge, UK) at 450 nm following its protocol, then cultured 20000 cells per well in DMEM-0819 with L-alanyl-L glutamine, adherently, treated with drugs dissolved in DMSO separately. To prepare LDH assay high control samples, cell lysis solution was added instead of drugs. Samples were incubated in a humidified incubator (at 37 °C, 5% CO2). A microplate reader was used to measure absorbances.
(§4) Tetrazolium reduction assay (MTT assays) and lactate dehydrogenase release assays (LDH assays) were conducted to assess cell metabolic activity (cell proliferation) and to measure cytotoxicity (drug toxicity). Abcam protocols (MTT: ab211091, LDH: ab65293) were followed. Here, both protocols were summarized.
(§5) Before adding assay solutions on day 1 (24 hours) and day 2 (48 hours), the drug treatment media were aspirated from plates and transferred to well plates.
(§6) For the MTT assay, serum-free media and MTT Reagent were added to each well. Control samples were prepared without using cells but serum-free media and MTT reagent. […] The reduction of MTT by mitochondrial succinate dehydrogenase was measured by reading absorbance at OD = 590 nm (yellow to purple). Cytotoxicity (CT) was calculated as a ratio of measures of absorbance of control wells (AbsC) and absorbance of sample-containing wells (AbsS) as below: CT = 100∗((AbsC−AbsS))/(AbsC) [formula]
(§7) For the LDH release assay, LDH reaction mix was added to wells. […] The release of LDH from cells due to damaged plasma membrane was measured by reading absorbance at OD = 450 nm (blue). Cytotoxicity (CT) was calculated as a ratio of measures of absorbance of low control wells (AbsLC), high control wells (AbsHC) sample wells (AbsS) as below: CT = 100∗((AbsS−AbsLC))/((AbsHC−AbsLC)) [formula]
The next series deals with glutaminase-2. The series is described as follows: Western blot for drug-induced glutaminase content. Type of series: cell-based. The following applies: U138MG cells, Figure 8. Here is the method:
as §1
(§2) Drug-induced glutaminase content was measured by western. The cells were washed with PBS and lysed with CelLytic M (C2978, Sigma-Aldrich, Saint Louis, MO, USA) lysis buffer containing protease inhibitors. The lysates were centrifuged at 12,000 rotations per minute for 5 min, and the supernatant was collected. Proteins were separated by Mini-PROTEAN® TGXTM Precast Gels (BioRad, Berkeley, CA, USA) and transferred to a Trans-Blot Turbo Mini 0.2um PVDF Transfer Packs membrane (BioRad, Berkeley, CA, USA) by using Trans-Blot® TurboTM Transfer System (Bio-Rad, Berkeley, CA, USA). The antibodies for mitochondrial glutaminase-1 (kidney-type) and glutaminase-2 (liver-type) encoded from two GLS isomers and GAPDH were used for primary immunoblotting. All the antibodies were diluted at a 1:1000 concentration. DMSO was used as a blank reference. The membranes were incubated in primary antibody solution overnight at 4 °C with gentle rocking. The secondary antibody, goat Anti-Rabbit HRP (ab205718) or goat anti-mouse IgG-HRP (sc2005, Santa Cruz Biotechnology, Inc., Dallas, TX, USA), was blotted for 30 min at 4 °C with gentle rocking. The protein bands were detected with ImageQuant LAS 500 (29-0050-63)

The subject of the next series is glutaminase-1. The series is described as follows: Western blot for drug-induced glutaminase content. It counts as cell-based. The following applies: U138MG cells, Figure 8. Here is the method:
as §1, §2
A general note: A western blot detects proteins with antibodies after separation by electrophoresis.

Series [3] has as its system glioblastoma cell line U138MG. The series is described as follows: Drug toxicity: MTT assay and LDH release assay. Particulars: U138MG glial cells, MTT and LDH release assays, 24 and 48 hours, Figure 6. In general terms: Tetrazolium dyes change colour on reduction, which living cells bring about.
Procedure: as §3, §4, §5, §6, §7

Structures are written as SMILES. Like-named read-outs stand apart in the source and are kept apart here.

Turning to `CC(C)C[C@H](NC(=O)[C@H](Cc1ccccc1)NC(=O)c1cnccn1)B(O)O` [bortezomib], the glutamate levels entry in series [1] is “highly decreased”. In series [2], the “drug toxicity (metabolic activity and cytotoxicity)” value (shortened to “drug toxicity”) was “toxic for glial cells even at low concentrations”. Besides, the “drug affinity for glutaminase-2 (relative band intensities)” value with glutaminase-2 is listed as “drastic”.

Take `CC12CC3CC(C)(C1)CC(N)(C3)C2` [memantine]: the glutamate levels result in series [1] is reported as “highly decreased”. Also, the “drug toxicity” value in series [2] is “insignificant”. Also, the “drug affinity for glutaminase-1 (relative band intensities)” value in the series on glutaminase-1 is reported as “significant drug affinity for glutaminase-1 could be measured for only comparably higher concentrations”. In addition, in the series on glutaminase-2, the “drug affinity for glutaminase-2 (relative band intensities)” value is “significant and higher affinity”.

Consider `CCCCc1ccc2[nH]c(NC(=O)OC)nc2c1` [parbendazole], for which, in series [3], the “drug toxicity” value is “toxic for glial cells even at low concentrations”. In addition, in series [1], the glutamate levels entry is “highly decreased”. The “drug affinity for glutaminase-1 (relative band intensities)” value in the series with glutaminase-1 is “significant drug affinity for glutaminase-1 could be measured for only comparably higher concentrations”. In addition, the “drug affinity for glutaminase-2 (relative band intensities)” value in the series on glutaminase-2 is “drastic”.

The values above are taken from EP4427746A1, “TREATMENT OF DEMENTIA USING BORTEZOMIB OR PARBENDAZOLE” (Bash Biotech Inc, priority 2023, dated 2024).
